Source: PubChem BioAssay (NCI)
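Protocol summary: plate cells (96-well), add compound at 5 concentrations, incubate 48 h, interpolate endpoints linearly. GI50: concentration for 50% inhibition of growth. TGI: total growth inhibition.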

What was measured:
Assay in all cases: growth of human tumour cells (NCI), 48 h
OVCAR-5 ovarian = test system: OVCAR-5 ovarian
OVCAR-4 ovarian = test system: OVCAR-4 ovarian
EKVX NSCLC = test system: EKVX NSCLC
DU-145 prostate = test system: DU-145 prostate
MOLT-4 leukemia = test system: MOLT-4 leukemia
SNB-75 CNS = test system: SNB-75 CNS
HS 578T breast = test system: HS 578T breast
NCI-H23 lung = test system: NCI-H23 lung
M14 melanoma = test system: M14 melanoma
A498 renal = test system: A498 renal

Structure (SMILES) | GI50 (OVCAR-5 ovarian) | TGI (OVCAR-5 ovarian) | GI50 (OVCAR-4 ovarian) | TGI (OVCAR-4 ovarian) | TGI (EKVX NSCLC) | GI50 (DU-145 prostate) | TGI (DU-145 prostate) | GI50 (MOLT-4 leukemia) | TGI (MOLT-4 leukemia) | GI50 (SNB-75 CNS) | TGI (SNB-75 CNS) | GI50 (HS 578T breast) | TGI (HS 578T breast) | GI50 (NCI-H23 lung) | TGI (NCI-H23 lung) | GI50 (M14 melanoma) | TGI (M14 melanoma) | GI50 (EKVX NSCLC) | GI50 (A498 renal) | TGI (A498 renal)
Cc1nnc2ccnn2c1C | 17.6 µM | 34.6 µM | > 100 µM | > 100 µM | 0.962 µM | > 100 µM | > 100 µM | > 100 µM | > 100 µM | > 100 µM | > 100 µM | > 100 µM | > 100 µM | – | – | – | – | – | – | –
OC(c1cc(C(F)(F)F)nc2c(C(F)(F)F)cccc12)C1CCCCN1 (stereo not given) | 2.88 µM | 10.4 µM | 2.81 µM | 7.07 µM | 8.63 µM | 2.76 µM | 6.16 µM | 2.77 µM | 6.53 µM | 2.34 µM | 11.7 µM | 3.8 µM | 19.5 µM | 2.85 µM | 11.3 µM | 1.83 µM | 3.41 µM | 2.3 µM | 1.81 µM | 7.83 µM
CC(=O)Nc1cc2ccc(=O)oc2cc1Cl | – | > 100 µM | – | > 100 µM | > 100 µM | – | > 100 µM | – | > 100 µM | – | > 100 µM | – | > 100 µM | – | > 100 µM | – | > 100 µM | – | – | > 100 µM
CN1CCN(c2ccc(Nc3ncc(Cl)c(NC[C@@H]4CCCO4)n3)cc2)CC1 | 1.18 µM | > 100 µM | 3.03 µM | 81.7 µM | 5.74 µM | 1.96 µM | > 100 µM | – | – | 1.14 µM | 4.72 µM | 1.32 µM | 11.2 µM | 0.987 µM | 11.6 µM | 1.13 µM | 11.2 µM | 1.69 µM | 0.803 µM | 3.36 µM
O=C1c2c(F)c(F)c(F)c(F)c2C(=O)N1c1ccc(F)cc1F | 12.6 µM | 26.5 µM | 16.9 µM | 53.3 µM | 35.9 µM | 8 µM | 23.4 µM | 0.864 µM | 3.73 µM | 12.7 µM | 34.6 µM | 35.5 µM | > 100 µM | 3.82 µM | 9.82 µM | 13.4 µM | 33.6 µM | 16.8 µM | 25.8 µM | 55.1 µM
CC(C)[C@@H]1NC(=O)[C@]2(C)CSC(=N2)c2ccnc(c2)CNC(=O)C[C@@H](/C=C/CCS)OC1=O | 0.156 µM | > 100 µM | 1.41 µM | > 100 µM | > 100 µM | 0.231 µM | > 100 µM | 0.128 µM | > 100 µM | 0.0912 µM | > 100 µM | 0.0407 µM | – | 0.303 µM | > 31.4 µM | 0.0957 µM | > 100 µM | 0.234 µM | 0.0323 µM | 0.254 µM
CN(C)CC(O)c1ccc(/C=C/c2ccc(Cl)cc2)cc1 (stereo not given) | 1.72 µM | 3.59 µM | 2.49 µM | 6.58 µM | 3.19 µM | 1.52 µM | 2.85 µM | – | – | 1.71 µM | 4.18 µM | 1.49 µM | 3.21 µM | 1.62 µM | 3.19 µM | 1.67 µM | 3.11 µM | 1.34 µM | 1.37 µM | 2.66 µM
C/C=C/[C@@H]1O[C@@H]2COC(=O)C2=C[C@@H]1O | 19.2 µM | 37.1 µM | 16.1 µM | 42.8 µM | 36.7 µM | 5.03 µM | 18.8 µM | 2.2 µM | – | 28.5 µM | 54 µM | 23.4 µM | 58.2 µM | 14.1 µM | 37.3 µM | 13.7 µM | 35.3 µM | 17.5 µM | – | –
CCOC(=O)n1cc(C2=C(c3ccc(OC)c(OC)c3)COC2=O)c2ccccc21 | 0.199 µM | > 100 µM | 2.36 µM | > 100 µM | > 100 µM | 0.0794 µM | > 100 µM | 0.0581 µM | > 100 µM | – | – | 0.087 µM | > 100 µM | 0.157 µM | > 100 µM | 0.0348 µM | > 100 µM | 0.0938 µM | 0.0226 µM | 0.139 µM
COC1=CC(=O)C(C2(OC(C)C)OC(=O)C(Cl)=C2Cl)=CC1=O (stereo not given) | – | > 100 µM | – | – | > 100 µM | – | > 100 µM | – | – | – | > 100 µM | – | > 100 µM | – | > 100 µM | – | > 100 µM | – | – | > 100 µM
C#Cc1cccc(Nc2nc3cc([N+](=O)[O-])ccc3nc2Nc2ccc(O)cc2)c1 | – | – | 1.99 µM | 5.03 µM | 5.26 µM | 1.81 µM | 3.77 µM | 1.2 µM | 4.17 µM | 1.36 µM | 3.42 µM | 1.89 µM | 4.71 µM | – | – | 1.43 µM | 2.99 µM | 1.86 µM | 3.08 µM | 13.7 µM
O=C(Nc1cccc(C(F)(F)F)c1)Nc1cccc(C(F)(F)F)c1 | 3.24 µM | 14.8 µM | 0.679 µM | 13.7 µM | 7.88 µM | 0.92 µM | 12.4 µM | 1.34 µM | 6.44 µM | 3.49 µM | 31.7 µM | 2.25 µM | 12.5 µM | 0.349 µM | 1.97 µM | 1.32 µM | 3.93 µM | 0.983 µM | – | –
Br[Se]c1ccccn1 | – | 35.1 µM | – | 30.9 µM | 31.5 µM | – | 30.8 µM | – | – | – | 30.7 µM | – | 40.3 µM | – | 39.3 µM | – | 31.7 µM | – | – | 34 µM
CC(=O)N[C@@H](Cc1ccc(OP(=O)(O)O)cc1)C(=O)N[C@H]1CCC(=O)N2CCC[C@@H](C(=O)Nc3cccc4ccccc34)N2C1=O | > 25 µM | > 25 µM | > 25 µM | > 25 µM | – | > 25 µM | > 25 µM | > 25 µM | > 25 µM | > 19.8 µM | > 25 µM | > 25 µM | > 25 µM | > 25 µM | > 25 µM | > 25 µM | > 25 µM | – | > 25 µM | > 25 µM
Fc1cc(-c2nnc3n2N=C(c2ccc(Cl)cc2)CS3)c(Cl)cc1Cl | 15.5 µM | 32.7 µM | 7.91 µM | 32.8 µM | 48.1 µM | 6.47 µM | 17.1 µM | – | – | 7.33 µM | 21.9 µM | 22.7 µM | 51.5 µM | 6.67 µM | 20.8 µM | 4.87 µM | 17.2 µM | 23.5 µM | 21 µM | 42.4 µM
